Consider 26 molecules from patent publication US11059795B2, “Androgen receptor modulators and methods for their use” (ESSA Pharma, Inc., priority 2018, dated 2021).

The structures appear in SMILES notation. A value given as a limit tells only on which side of the number the result lay.

One data set deals with T1, androgen receptor (AR) (Homo sapiens, UniProt P10275, T878A).
T1 construct: LNCaP cells were transiently transfected with the PSA (6.1 kb)-luciferase reporter for 24 h; endogenous in cells; host or cells: LNCaP
T1 sequence (P10275 1-920 T878A): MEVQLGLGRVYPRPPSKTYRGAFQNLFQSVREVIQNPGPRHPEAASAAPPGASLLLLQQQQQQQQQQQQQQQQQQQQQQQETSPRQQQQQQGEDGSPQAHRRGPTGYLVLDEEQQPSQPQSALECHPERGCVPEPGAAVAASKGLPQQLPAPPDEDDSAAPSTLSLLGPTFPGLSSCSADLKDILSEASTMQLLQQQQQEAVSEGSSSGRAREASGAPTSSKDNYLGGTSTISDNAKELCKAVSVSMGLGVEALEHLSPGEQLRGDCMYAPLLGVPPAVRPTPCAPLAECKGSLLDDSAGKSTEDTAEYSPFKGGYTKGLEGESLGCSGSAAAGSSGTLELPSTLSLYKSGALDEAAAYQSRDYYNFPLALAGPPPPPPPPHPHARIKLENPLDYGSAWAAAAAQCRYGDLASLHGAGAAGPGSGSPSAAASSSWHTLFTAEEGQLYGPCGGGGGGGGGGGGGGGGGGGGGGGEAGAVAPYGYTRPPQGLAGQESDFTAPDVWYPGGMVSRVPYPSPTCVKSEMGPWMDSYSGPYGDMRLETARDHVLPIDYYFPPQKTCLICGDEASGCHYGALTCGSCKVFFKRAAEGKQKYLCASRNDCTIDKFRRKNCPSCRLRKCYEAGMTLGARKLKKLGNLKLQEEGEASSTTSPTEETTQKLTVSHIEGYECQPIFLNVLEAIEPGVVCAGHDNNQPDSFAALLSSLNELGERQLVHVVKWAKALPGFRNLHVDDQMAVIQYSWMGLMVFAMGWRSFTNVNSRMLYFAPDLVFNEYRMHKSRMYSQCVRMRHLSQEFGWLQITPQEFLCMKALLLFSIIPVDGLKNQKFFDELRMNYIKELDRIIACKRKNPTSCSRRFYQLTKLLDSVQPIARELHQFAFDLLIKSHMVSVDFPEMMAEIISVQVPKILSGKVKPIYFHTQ
Kind of data set: Androgen-induced PSA (6.1 kb)-luciferase reporter assay in LNCaP cells. In kind it is cell-based. The settings on record: LNCaP cells transfected with PSA (6.1 kb)-luciferase reporter, R1881 1 nM, 24 h; read-out: PSA-Luc IC50 Range. As for the experimental part: The PSA (6.1 kb)-luciferase reporter contains functional AREs (androgen response elements) to which AR binds in response to androgen to induce luciferase activity.
Cells were lysed using Passive Lysis Buffer (Promega) and then collected into V-bottom 96-well tissue culture plates. Lysates were centrifuged at 4° C. for 5 minutes at 3000 rpm. To measure luminescence of LNCaP cell lysates the Firefly Luciferase Assay System (Promega) was employed, according to manufacturer's protocol. Relative luminescence units (RLU) in cell lysates were detected for 10 seconds using Promega GloMax-Multi Detection Luminometer (Promega). Values were normalized to protein content. GraphPad Prism graphing software was used to calculate IC50 values.
Comparisons between treatment and control groups were compared using Two-Way ANOVA with post-hoc Dunnett's and Tukey's tests. Differences were considered statistically significant at P values less than 0.05.
(In general: Reporter assays use an easily measured gene product as a stand-in for the process of interest.)

A short description of data set [1]: Microsomal stability assay, human liver microsomes. In kind it is in vitro ADME. The settings on record: pH 7.4, 1 μM compound, 0.5 mg/mL protein, 37° C., read-out: HLM +/− NADPH: Clint (μL/min/mg protein). The protocol: Microsomal stability assay is a widely used in vitro model to characterize the metabolic conversion by phase I enzymes, such as cytochrome P450 (CYP) enzymes. Since metabolism is known to be highly variable in different species, microsomal stability assay is commonly run in multiple species. Metabolic stability of testing compound can be evaluated using human, rat, mouse, or other animal liver or intestine microsomes to predict intrinsic clearance.
The assay was carried out in 96-well microtiter plates at 37° C. Reaction mixtures (25 μL) contained a final concentration of 1 μM test compound, 0.5 mg/mL liver microsomes protein, and 1 mM NADPH and/or 1 mM UDPGA (with alamethicin) in 100 mM potassium phosphate, pH 7.4 buffer with 3 mM MgCl2. The incubation was done with N=1, but duplicate incubation at each time point can be prepared if necessary. At each of the time points (for example, 0, 15, 30, and 60 minutes), 150 μL of quench solution (100% acetonitrile with 0.1% formic acid) with internal standard was transferred to each well. Besides the zero minute controls, mixtures containing the same components except the NADPH can also be prepared as the negative control. Verapamil was included as a positive control to verify assay performance. Plates were sealed, vortexed, and centrifuged at 4° C. for 15 minutes at 4000 rpm. The supernatant is transferred to fresh plates for LC/MS/MS analysis.
Summarized conditions: [Compound]=[…], [LM]=0.5 mg/mL, [NADPH]=1 mM and/or [UDPGA]=1 mM, Buffer=100 mM Potassium Phosphate, pH 7.4 with 3 mM MgCl2, Time=0, 15, 30, and 60 min, and Temperature=37° C.
All samples were analyzed on LC/MS/MS using an AB Sciex API 4000 instrument, coupled to a Shimadzu LC-20AD LC Pump system. Analytical samples were separated using a Waters Atlantis T3 dC18 reverse phase HPLC column (20 mm×2.1 mm) at a flow rate of 0.5 mL/min. The mobile phase consisted of 0.1% formic acid in water (solvent A) and 0.1% formic acid in 100% acetonitrile (solvent B).
The extent of metabolism is calculated as the disappearance of the test compound, compared to the 0-min time incubation. Initial rates are calculated for the compound concentration and used to determine half-life (t½) values and subsequently, the intrinsic clearance (Clint). Clint=(0.693)(1/t½ (min))(g of liver/kg of body weight)(mL incubation/mg of microsomal protein)(45 mg of microsomal protein/g of liver weight)
A general note: Microsomes from liver hold many membrane-bound enzymes, among them those of drug oxidation.

For the molecule `C[C@@](O)(c1ccc(OCc2ocnc2S(C)(=O)=O)cc1)c1cc(Cl)c(OCCCl)c(C#N)c1` [Compound A107], the IC50 at androgen receptor (AR) is over 2000 nM. Moreover, the microsomal CLint at 1 μM in data set [1] lay within 12 to 48 µL/min/mg.

As for `CC(C)(c1ccc(OCc2ocnc2S(C)(=O)=O)cc1)c1cc(Cl)c(NCCCl)c(Cl)c1` [Compound A50], the IC50 at androgen receptor (AR) was 500 to 2000 nM. In addition, the microsomal CLint at 1 μM in data set [1] is 12 to 48 µL/min/mg. Taken in the same sequence, the figures for `CC(C)(c1ccc(N2C(=O)N(N)C(C)(C)C2=O)cc1)c1cc(Cl)c(OCCCl)c(Cl)c1` [Compound B6] were over 2000 nM and 12 to 48 µL/min/mg. `CC(C)(c1ccc(OCc2ccnc(NS(C)(=O)=O)n2)cc1)c1cc(F)c(OCCCl)c(C#N)c1` [Compound A205]: the concentration for half-maximal inhibition (IC50) at androgen receptor (AR) lay in the range of 500 to 2000 nM.

In the case of `CC(C)(c1ccc(OCc2[nH]ncc2NS(C)(=O)=O)cc1)c1cc(Cl)c(OCCCl)c(Cl)c1` [Compound A40, N-[3-[[4-[1-[3,5-Dichloro-4-(2-chloroethoxy)phenyl]-1-methyl-ethyl]phenoxy]methyl]-1H-pyrazol-4-yl]methanesulfonamide], the IC50 at androgen receptor (AR) lay within 500 to 2000 nM. For the same molecule, the microsomal CLint at 1 μM in data set [1] lay within 12 to 48 µL/min/mg. Taken in the same sequence, the figures for `CN1C(=O)N(Cc2ccc(C(C)(C)c3cc(Cl)c(OCCCl)c(Cl)c3)cc2C#N)C(=O)C1(C)C` [Compound B8] were 500 to 2000 nM and at least 48 µL/min/mg.

Take `CC(C)(c1ccc(OCCCl)c(Cl)c1)c1ccc(OCc2ocnc2S(C)(=O)=O)c(C#N)c1` [Compound A62]: the half-inhibitory concentration (IC50) at androgen receptor (AR) is over 2000 nM. The microsomal CLint at 1 μM in data set [1] was under 12 µL/min/mg. Taken in the same sequence, the figures for `CC(C)(c1ccc(Nc2ncc(CNS(C)(=O)=O)o2)cc1)c1cc(Cl)c(OCCCl)c(Cl)c1` [Compound A75, N-((2-((4-(2-(3,5-Dichloro-4-(2-chloroethoxy)phenyl)propan-2-yl)phenyl)amino)oxazol-5-yl)methyl)methanesulfonamide] were 500 to 2000 nM and under 12 µL/min/mg.

Regarding `CC(C)(c1ccc(OCc2ocnc2S(C)(=O)=O)cc1)c1cnc(NCCCl)nc1` [Compound A58], the IC50 on androgen receptor (AR) was over 2000 nM. Further, the microsomal CLint at 1 μM in data set [1] fell in the range of 12 to 48 µL/min/mg. Taken in the same sequence, the figures for `COc1c(Cl)cc(C(C)(C)c2ccc(OCc3ocnc3S(C)(=O)=O)cc2)cc1Cl` [Compound A56] were 500 to 2000 nM and under 12 µL/min/mg. Taken in the same sequence, the figures for `CC(C)(c1ccc(OCc2nnc(O)o2)cc1)c1cc(Cl)c(OCCCCl)c(Cl)c1` [Compound A18] were over 2000 nM and at least 48 µL/min/mg. Taken in the same sequence, the figures for `CC(C)(c1cc(Cl)c(OCCCl)c(Cl)c1)c1ccc(OCc2ocnc2S(C)(=O)=O)c(C(N)=O)c1` [Compound A76] were 500 to 2000 nM and under 12 µL/min/mg. With `CC(C)(c1ccc(OCc2n[nH]cc2NS(=O)(=O)C(F)(F)F)cc1)c1cc(Cl)c(OCCCl)c(Cl)c1` [Compound A106], the IC50 at androgen receptor (AR) is under 500 nM. For the same molecule, the microsomal CLint at 1 μM in data set [1] lay in the range of 12 to 48 µL/min/mg.

With `CC(C)(c1ccc(-c2c[nH]c(CNS(C)(=O)=O)n2)cc1)c1cc(Cl)c(OCCCCl)c(Cl)c1` [Compound A25], the IC50 at androgen receptor (AR) is over 2000 nM. Also, the microsomal CLint at 1 μM in data set [1] was under 12 µL/min/mg. Taken in the same sequence, the figures for `CC(C)(C)N(c1ccc(OCc2ocnc2S(C)(=O)=O)cc1)c1cc(Cl)c(OCCCl)c(Cl)c1` [Compound A31, N-tert-Butyl-3,5-dichloro-4-(2-chloroethoxy)-N-[4-[(4-methylsulfonyloxazol-5-yl)-methoxy]-phenyl]aniline] were under 500 nM and 12 to 48 µL/min/mg. Taken in the same sequence, the figures for `CC(=O)Nc1cc(COc2ccc(C(C)(C)c3cc(Cl)c(OCCCCl)c(Cl)c3)cc2)on1` [Compound A23] were over 2000 nM and 12 to 48 µL/min/mg. Taken in the same sequence, the figures for `CC(C)(c1ccc(-n2cnc(CNS(C)(=O)=O)c2)cc1)c1cc(Cl)c(OCCCl)c(Cl)c1` [Compound A24] were 500 to 2000 nM and under 12 µL/min/mg.

Regarding `CC(C)(c1ccc(OCc2ocnc2S(C)(=O)=O)cc1)c1cc(Cl)c(OCCC(F)(F)F)c(Cl)c1` [Compound A54, 5-((4-(2-(3,5-Dichloro-4-(3,3,3-trifluoropropoxy)phenyl)propan-2-yl)phenoxy)methyl)-4-(methylsulfonyl)oxazole], on androgen receptor (AR), the 50% inhibitory concentration (IC50) is 500 to 2000 nM. Moreover, in data set [1], the microsomal CLint at 1 μM is under 12 µL/min/mg. In the case of `CC(C)(c1ccc(OCc2cn(S(C)(=O)=O)cn2)cc1)c1cc(Cl)c(OCCCCl)c(Cl)c1` [Compound A5, 4-((4-(2-(3,5-dichloro-4-(3-chloropropoxy)phenyl)propan-2-yl)phenoxy)methyl)-1-(methylsulfonyl)-1H-imidazole], the half-inhibitory concentration (IC50) on androgen receptor (AR) lay within 500 to 2000 nM. Moreover, in data set [1], the microsomal CLint at 1 μM is under 12 µL/min/mg. Taken in the same sequence, the figures for `CC(C)(c1ccc(OCc2ncncc2NS(C)(=O)=O)cc1)c1cc(Cl)c(OCCCl)c(Cl)c1` [Compound A41, N-(4-((4-(2-(3,5-Dichloro-4-(2-chloroethoxy)phenyl)propan-2-yl)phenoxy)methyl)pyrimidin-5-yl)methanesulfonamide] were over 2000 nM and at least 48 µL/min/mg. Taken in the same sequence, the figures for `CC(C)(c1ccc(-c2cc(CNS(C)(=O)=O)on2)cc1)c1cc(Cl)c(OCCCCl)c(Cl)c1` [Compound A22, N-((3-(4-(2-(3,5-dichloro-4-(3-chloropropoxy)phenyl)propan-2-yl)phenyl) Isoxazol-5-yl)methyl)methanesulfonamide] were over 2000 nM and under 12 µL/min/mg. For the molecule `CC(C)(c1ccc(OCc2noc(S(C)(=O)=O)n2)cc1)c1cc(Cl)c(OCCCl)c(C#N)c1` [Compound A151], the half-inhibitory concentration (IC50) at androgen receptor (AR) lay in the range of 500 to 2000 nM. In the case of `CC(C)(c1ccc(OCc2ocnc2S(C)(=O)=O)cc1)c1cc(Cl)c(OCCN)c(Cl)c1` [Compound A53], the half-inhibitory concentration (IC50) on androgen receptor (AR) was over 2000 nM. Also, in data set [1], the microsomal CLint at 1 μM was under 12 µL/min/mg. In the case of `CC(C)(c1ccc(OCc2nc(NS(C)(=O)=O)nc3c2CCNC3)cc1)c1cc(Cl)c(OCCCl)c(C#N)c1` [Compound A191], on androgen receptor (AR), the IC50 lay in the range of 500 to 2000 nM.

`CC(C)(c1ccc(-c2coc(CNS(C)(=O)=O)n2)cc1)c1cc(Cl)c(OCCCCl)c(Cl)c1` [Compound A21]: in data set [1], the microsomal CLint at 1 μM is under 12 µL/min/mg. `CC(C)(c1ccc(OC2CCc3cnc(NS(C)(=O)=O)nc32)cc1)c1cc(Cl)c(OCCCl)c(C#N)c1` (centres unmarked) [Compound A203]: at androgen receptor (AR), the IC50 fell in the range of 500 to 2000 nM.

The term IC50 denotes the concentration that gives 50% inhibition.
